Source: PMC6753144, “Exploiting biofilm phenotypes for functional characterization of hypothetical genes in Enterococcus faecalis” (NPJ Biofilms and Microbiomes, 2019)

Target: T1, Bph-H6 (Bph, OG1RF_10435, biofilm phosphatase) (Enterococcus faecalis, UniProt A0ACD6T9Q6)
T1 construct: full length, 177 residues, C-terminal His6 tag (pET28b+, NcoI/XhoI), expressed in E. coli BL21(DE3), Ni-NTA purified
Assay: malachite green phosphate release assay
Type: biochemical
Settings: 10 mM Mn2+, pH 7.5, 37 °C, 1 h, 1 µM enzyme, 100 µM substrate

T1 sequence (A0ACD6T9Q6 entry or part of it): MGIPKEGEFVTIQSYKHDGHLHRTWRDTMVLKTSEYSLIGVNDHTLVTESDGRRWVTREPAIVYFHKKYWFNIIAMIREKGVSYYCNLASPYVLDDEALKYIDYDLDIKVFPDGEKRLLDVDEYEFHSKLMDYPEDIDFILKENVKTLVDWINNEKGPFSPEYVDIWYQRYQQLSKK

SMILES	malachite green phosphate release assay
Nc1ncnc2c1ncn2[C@@H]1O[C@H](COP(=O)(O)OP(=O)(O)OP(=O)(O)O)[C@@H](O)[C@H]1O [ATP]	Bph-H6 had in vitro phosphatase activity on nucleoside triphosphate, nucleoside diphosphate, and deoxynucleoside phosphate substrates
Nc1nc2c(ncn2[C@@H]2O[C@H](COP(=O)(O)OP(=O)(O)O)[C@@H](OP(=O)(O)OP(=O)(O)O)[C@H]2O)c(=O)[nH]1 [ppGpp]	We also detected phosphatase activity against ppGpp, the second messenger
